# System: epichaperome
# Assay: Target occupancy by zelavespib using tracer [131I]-PU-AD and gamma counting in MDA-MB-468 tumors
# Assay type: in vivo, mouse
# Settings: for target occupancy: MDA-MB-468 tumor, 50 mg/kg; for target occupancy, accounting for background signal: background radioactivity of normal tissues (heart) subtracted
# Experimental: MDA-MB-468 (RRID:CVCL_0419) tumor xenografts were established on the forelimbs of female athymic nude mice (Hsd:Athymic Nude-Foxn1^nu; Envigo; 5 weeks old; RRID:MGI:5652489) by subcutaneous (s.c.) injection of 7 × 10^6 cells in a 300 µL cell suspension of a 1:1 v/v mixture of PBS with reconstituted basement membrane (BD Matrigel^TM, Collaborative Biomedical Products Inc., Bedford, MA, USA). Tumor progression was monitored using vernier calipers. For biodistribution studies, female athymic nude mice with MDA-MB-468 tumor xenografts (~200–300 mm^3) on the forelimbs were injected intravenously in the tail vein with zelavespib (50 mg/kg (PU-H71.HCl formulated in 10 mM Phosphate Buffer, pH = ~6.4)) at different time points (0 (co-injection), 6, 24, and 48 h) prior to tracer administration. At designated time points post-drug administration, mice were injected intravenously in the tail vein with 0.93–1.1 MBq (25–50 µCi) of [^131I]-PU-AD in 200 µL of 5% ethanol in saline. The activity in the syringe before and after administration was assayed in a dose calibrator (CRC-15R; Capintec, Florham Park, NJ, USA) to determine by difference the actual activity administered to each animal. Animals were euthanized by CO2 asphyxiation at 24 h post-administration of the radiolabeled [^131I]-PU-AD tracer, and organs, including tumor(s), were harvested and weighed. ^131I was measured in a 2480 WIZARD automatic gamma counter (PerkinElmer, Waltham, MA, USA) using a 260–430 keV energy window. Count data were background- and decay-corrected to the time of injection, and the percent injected dose per gram (%ID/g) for each tissue sample was calculated using a measured ^131I calibration factor to convert count rate to activity and the activity was normalized to the activity injected and the weighed mass of the sample to yield the activity concentration in %ID/g.
# The drug could be trapped in non-tumor areas (i.e., stroma or necrotic tissue) or be intracellular but not target-bound. To test this notion and determine the percentile target occupied by each of these intratumoral concentrations of zelavespib, we performed studies in which tracer amounts (that is, non-pharmacologically perturbing amounts) of the radiolabeled epichaperome ligand [^131I]-PU-AD (~6 ng/g which is ~1/10,000 of the therapeutic zelavespib amount) were administered to mice intravenously 24 h prior to tumor zelavespib measurements (Figure 2a). The ^131I isotope has a half-life of 8 days, making it suitable for measurements of drugs with an extended tumor retention profile, such as that observed for zelavespib. It emits γ radiation and β particles; thus, γ-counting can be applied to detect and quantify the radioactive signal in tumors and tissues upon mouse sacrifice. Because both zelavespib and [^131I]-PU-AD bind to the same target, the epichaperome, the more zelavespib that is present in the tumor and is target-bound, the lower the radioactivity signal is in the tumor.
# Figure 3 Relationship between molar concentration and target engagement in MDA-MB-468 tumor-bearing mice. (a) Tumor molar concentrations of zelavespib experimentally determined by LC–MS/MS upon administration of single-dose 50 mg/kg zelavespib and sacrificing the mice at 30 h, 48 h, and 72 h post-zelavespib administration (n = 5 mice per time-point). Data are presented as means ± s.e.m., n = 5, one-way ANOVA with Dunnett’s post hoc. Controls: PU-24h, mice were injected 50 mg/kg zelavespib, and tumor concentrations of the drug were determined at 24 h post-injection using LC–MS/MS. Vehicle, mice were injected vehicle only. (b) Target engagement by zelavespib was determined by co-injection of zelavespib with a trace amount of [^131I]-PU-AD. Zelavespib was administered 6, 24, and 48 h prior to [^131I]-PU-AD. […]
structure (smiles),measurement,setting,value
CC(C)NCCCn1c(Sc2cc3c(cc2I)OCO3)nc2c(N)ncnc21 [zelavespib],target occupancy,30 h post single 50 mg/kg i.v.,38.8%
same,"target occupancy, accounting for background signal",30 h post single 50 mg/kg i.v.,41.5%
same,target occupancy,48 h post single 50 mg/kg i.v.,24.9%
same,"target occupancy, accounting for background signal",48 h post single 50 mg/kg i.v.,22.4%
same,"target occupancy, accounting for background signal",72 h post single 50 mg/kg i.v.,3.5%
same,remaining intratumoral zelavespib that is target-bound,72 h post-injection,about 50%

# — PMC10604720, “Unraveling the Mechanism of Epichaperome Modulation by Zelavespib: Biochemical Insights on Target Occupancy and Extended Residence Time at the Site of Action” (Biomedicines, 2023)
